Source: US20060167057A1, “Compounds for the treatment of CNS and amyloid associated diseases” (priority 2004, published 2006)

Target: T1, L1 transport system (large neutral amino acid carrier, L1-system carrier) (Rattus norvegicus, UniProt Q63016)
T1 construct: functionality of their endogenous transporters such as the L1-system carrier; endogenous in cells; host or cells: rat primary cerebrovascular (brain microcapillary) endothelial cells, RBEC
Assay: Competitive binding assay to the brain L1 transport system (L-[U-14C]phenylalanine on rat primary cerebrovascular endothelial cells)
Details: for Status of Binding: compounds of Example 4, 10^−6, 10^−5 and 10^−4, Δ versus phenylalanine
Procedure: Compound samples in PBS (without Ca^+2, Mg^+2)-glucose 30 mM-HEPES 10 mM—DMSO 1% as prepared in Example 1 were thawed and left for at least 30 minutes at 20-23° C. before preparation of the following sub-dilutions for the competitive binding assay: • 200 μL of the stock solution were added to 800 μL PBS (without Ca^+2, Mg^+2)-Glucose-HEPES-1% DMSO (PBSD-1) [diluted 1:5 for a final 1:5 dilution] • 100 μL (1/5 dilution above) were added to 900 μL PBSD-1 [diluted 1:10 for a final 1:50 dilution] • 100 μL (1/50 dilution above) were added to 900 μL PBSD-1 [diluted 1:10 for a final 1:500 dilution]
These sub-dilutions were used immediately or stored overnight at 4° C. before the competitive binding assay. A volume of 45 μL of each of the compound dilutions (1:5, 1:50, 1:500) in PBSD-1 was added to the appropriate wells in the dilution plate.
Brains from sixty 24-day-old rats were dissected individually on a sterile lint moistened with ice cold Hanks' balanced salt solution (Gibco BRL, Grand Island, N.Y.) containing 10 mM HEPES (medium 1) supplemented with 0.1% BSA. Cerebellum, striatum, optic nerves, and brain stem (white matter) were removed. After a mid-sagittal section of the brain, the meninges and leptomeningeal debris were removed by rolling a sterile dry cotton swab on the cortices. (Ichikawa N, Naora K, Hirano H, Hashimoto M, Masumura S, and Iwamoto K (1996). Isolation and primary culture of rat cerebral microvascular endothelial cells for studying drug transport in vitro. J Pharmacol Toxicol Meth 36: 45-52.). Clean cortices were minced in pieces of ≈2 mm^3 in 15 mL of ice-cold medium 1-0.1% BSA. The preparation was divided into 4 sterile pre-weighed tubes and centrifuged at 330× g at 20-25° C. for 5 min. Tubes were weighed and pre-warmed (37° C.) and medium 1 with 0.5% BSA containing 0.3% collagenase and 10 μg/mL DNAse 1 (Roche, Laval, Quebec, Canada) were added to each tube (1 mL/g of tissue).
The brain-collagenase mixture was vigorously agitated in a water bath at 37° C. for 90 min. Fifteen min before the end of the digestion, the tissue was homogenized using a 10-mL pipette until a creamy mixture was obtained (≈20 aspirations). Cells were washed by adding medium 1 with 0.1% BSA to the homogenate (26 mL/tube) and centrifuged at 100× g at 20-25° C. for 7 min. This washing step was repeated 3 more times, once for 5 min and twice for 3 min. Each pellet was re-suspended in 25 mL of a 15% dextran solution prepared in medium 1 with 0.1% BSA and centrifuged at 3200× g at 4° C. for 25 min to isolate vessels from neural tissue and dextran layers. Vascular pellets were re-suspended in 5 mL Ca^++—Mg^++-free-medium 1 with 0.1% BSA (medium 2) at 20-25° C. and transferred in a 50-mL tube. Remaining vessels were collected by rinsing the tubes and pooling the rinsing suspension. (Rupnick M A, Carey A, and Williams S K (1988). Phenotypic diversity in cultured cerebral microvascular endothelial cells in vitro. Cell Develop Biol 24: 435-444.)
The vascular preparation was filtered and rinsed (20 mL of medium 2) through a sterile 355-μm mesh. The 355-μm filtrate was sequentially filtered twice (20 mL of medium 2) through sterile 112-μm meshes and rinsed (Stanimirovic D B, Wong J, Ball R, and Durkin J P (1995). Free radical-induced endothelial membrane dysfunction at the site of the blood-brain barrier: relationship between lipid peroxidation, Na,K-ATPase activity, and ^51Cr release. Neurochem Res 20:1417-1427.) and the latter filtrate was filtered and rinsed through a sterile 20-μm mesh. A final step of filtration and rinse was repeated through a double layer of 20-μm meshes. All 20-μm meshes, which retained the microcapillaries, were then transferred into a 50-mL tube containing 20 mL of a 0.1% collagenase/dispase (Roche) solution in medium 2 supplemented with 10 μg/mL DNAse 1 and 0.147 μg/mL tosyl-lysine-chloromethyl-ketone (Sigma Chemical Co., Oakville, Ontario, Canada) (medium 3).

T1 sequence (Q63016 whole entry): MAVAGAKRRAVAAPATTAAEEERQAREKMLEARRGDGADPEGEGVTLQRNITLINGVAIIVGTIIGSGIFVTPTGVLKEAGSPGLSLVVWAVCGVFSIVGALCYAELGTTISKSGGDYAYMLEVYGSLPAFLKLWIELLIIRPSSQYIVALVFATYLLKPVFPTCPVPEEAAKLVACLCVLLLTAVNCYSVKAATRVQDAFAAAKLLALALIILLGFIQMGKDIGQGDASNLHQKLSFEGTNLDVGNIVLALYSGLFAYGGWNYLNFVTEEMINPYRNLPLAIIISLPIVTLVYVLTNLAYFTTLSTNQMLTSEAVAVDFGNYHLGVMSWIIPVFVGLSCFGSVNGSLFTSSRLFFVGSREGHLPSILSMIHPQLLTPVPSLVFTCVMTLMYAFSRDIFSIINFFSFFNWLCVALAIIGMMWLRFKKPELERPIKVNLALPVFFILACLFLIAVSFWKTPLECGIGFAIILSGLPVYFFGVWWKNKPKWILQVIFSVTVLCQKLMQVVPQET
T1 sequence (Q794F9 whole entry partner): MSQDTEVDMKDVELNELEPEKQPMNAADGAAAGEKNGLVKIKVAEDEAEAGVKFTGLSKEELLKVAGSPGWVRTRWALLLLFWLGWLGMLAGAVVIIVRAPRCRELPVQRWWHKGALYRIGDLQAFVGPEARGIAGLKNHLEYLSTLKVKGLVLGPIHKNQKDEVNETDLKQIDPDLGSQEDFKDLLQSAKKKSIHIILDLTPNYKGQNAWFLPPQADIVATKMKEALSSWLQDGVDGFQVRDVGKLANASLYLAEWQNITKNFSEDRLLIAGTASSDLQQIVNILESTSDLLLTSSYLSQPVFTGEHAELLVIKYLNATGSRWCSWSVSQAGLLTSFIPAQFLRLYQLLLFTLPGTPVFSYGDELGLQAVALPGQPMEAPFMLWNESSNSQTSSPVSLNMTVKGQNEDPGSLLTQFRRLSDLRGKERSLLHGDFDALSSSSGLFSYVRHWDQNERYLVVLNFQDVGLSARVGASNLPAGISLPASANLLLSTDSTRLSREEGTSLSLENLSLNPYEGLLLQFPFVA

| Comparison with the Binding of Phenylalanine (10^−4 M) | Comparison with the Binding of Phenylalanine (10^−5 M) | Comparison with the Binding of Phenylalanine (10^−6 M) | Structure (SMILES) | Status of Binding |
| --- | --- | --- | --- | --- |
| 1 (0 < X < 10 Rank 1) | 2 (10 < X < 20 Rank 2) | 2 (10 < X < 20 Rank 2) | NC(Cc1ccc(-c2ccc(CN3CCN(c4cccc(Cl)c4)CC3)cc2)cc1)C(=O)O (stereo not drawn) [Compound 116] |  |
| 0 (X < 0 Rank 0) | 1 (0 < X < 10 Rank 1) | 1 (0 < X < 10 Rank 1) | Cc1nnc(SCc2ccc(-c3ccc(CC(N)C(=O)O)cc3)cc2)s1 (stereo not drawn) [Compound 126] |  |
| 0 (X < 0 Rank 0) | 0 (X < 0 Rank 0) | 1 (0 < X < 10 Rank 1) | NC(Cc1cccc(-c2cccc(Sc3nc(-c4ccccc4)c(-c4ccccc4)o3)c2)c1)C(=O)O (stereo not drawn) [Compound 134] |  |
| 0 (X < 0 Rank 0) | 0 (X < 0 Rank 0) | 1 (0 < X < 10 Rank 1) | NC(Cc1cccc(-c2cccc(N3CCc4ccccc4C3)c2)c1)C(=O)O (stereo not drawn) [Compound 115] |  |
| 3 (X > 20 Rank 3) | 3 (X > 20 Rank 3) | 2 (10 < X < 20 Rank 2) | NC(Cc1ccc(-c2ccc(CSc3nc(-c4ccccc4)c(-c4ccccc4)[nH]3)cc2)cc1)C(=O)O (stereo not drawn) [Compound 149] |  |
| 2 (10 < X < 20 Rank 2) | 3 (X > 20 Rank 3) | 3 (X > 20 Rank 3) | CCOC(=O)c1cnc(SCc2cccc(CC(N)C(=O)O)c2)[nH]c1=O (stereo not drawn) [Compound 131] |  |
| 2 (10 < X < 20 Rank 2) | 3 (X > 20 Rank 3) | 3 (X > 20 Rank 3) | NC(Cc1cccc(-c2cccc(Sc3nc4cc([N+](=O)[O-])ccc4s3)c2)c1)C(=O)O (stereo not drawn) [Compound 109] |  |
| 0 (X < 0 Rank 0) | 2 (10 < X < 20 Rank 2) | 2 (10 < X < 20 Rank 2) | NC(Cc1cccc(CSc2nnnn2CC(=O)O)n1)C(=O)O (stereo not drawn) [Compound 123] |  |
| 0 (X < 0 Rank 0) | 0 (X < 0 Rank 0) | 1 (0 < X < 10 Rank 1) | NC(Cc1cccc(-c2cccc(Sc3nnnn3CC(=O)O)c2)c1)C(=O)O (stereo not drawn) [Compound 138] |  |
| 1 (0 < X < 10 Rank 1) | 0 (X < 0 Rank 0) | 0 (X < 0 Rank 0) | NC(Cc1cccc(CSc2ncccn2)n1)C(=O)O (stereo not drawn) [Compound 154] |  |
| 0 (X < 0 Rank 0) | 1 (0 < X < 10 Rank 1) | 0 (X < 0 Rank 0) | NC(Cc1cccc(CN2CCN(c3ccccn3)CC2)n1)C(=O)O (stereo not drawn) [Compound 98] |  |

The remaining lines, values behind:

| Structure (SMILES) | Comparison with the Binding of Phenylalanine (10^−4 M) | Comparison with the Binding of Phenylalanine (10^−5 M) | Comparison with the Binding of Phenylalanine (10^−6 M) | Status of Binding |
| --- | --- | --- | --- | --- |
| NC(Cc1cccc(CSc2nccc(O)n2)c1)C(=O)O (stereo not drawn) [Compound 16] | 0 (X < 0 Rank 0) | 1 (0 < X < 10 Rank 1) | 0 (X < 0 Rank 0) |  |
| NC(Cc1cccc(CSc2nc3cc([N+](=O)[O-])ccc3[nH]2)n1)C(=O)O (stereo not drawn) [Compound 94] | 1 (0 < X < 10 Rank 1) | 1 (0 < X < 10 Rank 1) | 1 (0 < X < 10 Rank 1) |  |
| COc1ccc2[nH]c(SCc3ccc(-c4ccc(CC(N)C(=O)O)cc4)cc3)nc2c1 (stereo not drawn) [Compound 91] | 1 (0 < X < 10 Rank 1) | 1 (0 < X < 10 Rank 1) | 0 (X < 0 Rank 0) |  |
| NC(Cc1cccc(CSc2ccnc3cc(C(F)(F)F)ccc23)n1)C(=O)O (stereo not drawn) [Compound 45] | 0 (X < 0 Rank 0) | 2 (10 < X < 20 Rank 2) | 0 (X < 0 Rank 0) |  |
| NC(Cc1cccc(CSc2ncnc3[nH]ncc23)n1)C(=O)O (stereo not drawn) [Compound 33] | 3 (X > 20 Rank 3) | 3 (X > 20 Rank 3) | 3 (X > 20 Rank 3) |  |
| N[C@@H](Cc1ccccc1)C(=O)NC(Cc1cccc(CSc2nnnn2-c2ccccc2)c1)C(=O)O (stereo partly drawn) [Compound 53] | 0 (X < 0 Rank 0) | 2 (10 < X < 20 Rank 2) | 2 (10 < X < 20 Rank 2) |  |
| N[C@@H](Cc1ccccc1)C(=O)NC(Cc1cccc(CSc2nnnn2-c2ccc(O)cc2)c1)C(=O)O (stereo partly drawn) [Compound 50] | 0 (X < 0 Rank 0) | 2 (10 < X < 20 Rank 2) | 2 (10 < X < 20 Rank 2) |  |
| COc1ccc(-n2nnnc2SCc2cccc(C[C@H](N)C(=O)O)c2)cc1 [drawing 467] |  |  |  | 3 (3: Δ > 10%, significantly higher binding affinity than phenylalanine) |
| N[C@@H](Cc1cccc(CSc2nc3ccccc3[nH]2)n1)C(=O)O [drawing 471] |  |  |  | 1 (1: −10 > Δ > −50%, lower binding affinity than phenylalanine) |
| N[C@@H](Cc1cccc(C[S+]([O-])c2nnnn2-c2ccccc2)c1)C(=O)O (stereo partly drawn) [drawing 475] |  |  |  | 3 (3: Δ > 10%, significantly higher binding affinity than phenylalanine) |
| NC(Cc1cccc(CN2CCN(c3cccc(Cl)c3)CC2)n1)C(=O)O (stereo not drawn) [Compound 86] | 1 (0 < X < 10 Rank 1) | 2 (10 < X < 20 Rank 2) | 1 (0 < X < 10 Rank 1) |  |
| O=C(Nc1ccc(-c2ccccc2)cc1)NC(Cc1cccc(CSc2nc3ccccc3o2)n1)C(=O)O (stereo not drawn) [Compound 63] | 0 (X < 0 Rank 0) | 0 (X < 0 Rank 0) | 1 (0 < X < 10 Rank 1) |  |
| N[C@@H](Cc1cccc(CS(=O)(=O)c2nc3ccccc3[nH]2)n1)C(=O)O [drawing 473] |  |  |  | 0 (0: Δ ≦ −50%, no binding or very low binding affinity) |
| N[C@@H](Cc1cccc(CSc2nnc(-c3ccccc3)[nH]2)c1)C(=O)O [drawing 470] |  |  |  | 2 (2: 10% ≧ Δ ≧ −10% similar binding affinity to phenylalanine) |
| O=C(NC(Cc1cccc(CSc2nnc(-c3ccccc3)[nH]2)c1)C(=O)O)NC(c1ccccc1)c1ccccc1 (stereo not drawn) [Compound 57] | 3 (X > 20 Rank 3) | 3 (X > 20 Rank 3) | 3 (X > 20 Rank 3) |  |
| N[C@@H](Cc1ccccc1)C(=O)NC(Cc1cccc(CSc2ncc[nH]2)c1)C(=O)O (stereo partly drawn) [Compound 7] | 0 (X < 0 Rank 0) | 0 (X < 0 Rank 0) | 2 (10 < X < 20 Rank 2) |  |
| NC(Cc1cccc(-c2cccc(N3CC=CCC3)c2)c1)C(=O)O (stereo not drawn) [Compound 43] | 0 (X < 0 Rank 0) | 2 (10 < X < 20 Rank 2) | 0 (X < 0 Rank 0) |  |
| N[C@@H](Cc1cccc(CSc2nc3ccc(Cl)cc3s2)n1)C(=O)O [drawing 477] |  |  |  | 1 (1: −10 > Δ > −50%, lower binding affinity than phenylalanine) |
